The values that follow come from patent US12448400B2, “KRAS G12D modulating compounds” (priority 2023, dated 2025).

Read-outs that look alike come from different tables or passages of the source.

One series deals with GP2D (KRAS G12D) cells. Nature of the series: 2D cell viability assay (CellTiter-Glo). The series is classed as cell-based. On the procedure: Example B. 2D Cell Viability Assay
Compounds were tested in a 384-well format for their ability to inhibit the viability of GP2D (KRAS G12D) cells in 2D assays. Compounds were serially diluted (1:3) in DMSO. The LabCyte ECHO Acoustic dispenser system was used to pre-spot assay plates with 200 nL of test molecule per well. 1000 cells/well (40 μL volume per well) in RPMI medium with 10% FBS, and Penicillin-Streptomycin-Glutamine were plated in pre-spotted 384-well plates (Greiner, Catalog #781076) on the BioTEK EL406 liquid dispenser with a 5 μL dispensing cassette (BioTek 7170011). The plates were incubated at 37° C., 5% CO2 for 4 days before addition of CellTiter-Glo (CTG) reagent and measurement of luminescence signal. EC50 values were defined as the compound concentration that causes a 50% decrease in luminescence signal and were calculated using a sigmoidal dose-response model to generate curve fits.

Series [1] is described as follows: Mouse oral cassette pharmacokinetics. The series is classed as in vivo, male CD-1 mice. Here is the method:
Mouse Oral Cassette Pharmacokinetics
Test compounds (1-3 compounds per cassette) were formulated in solution formulations (10 w/v % Captisol in 50 mM Citrate buffer) and administered orally at 30 mg-eq./kg each compound to a group of four male CD-1 mice. The test articles were administrated by oral gavage at a dose volume of 10 mL-eq/kg.
Blood samples were collected at 0.5, 1, 3, 6, 8, and 24 hours post dose into K2EDTA tubes and stored on wet ice until processed. Whole blood was processed to plasma by centrifugation (3500 rpm for 10 minutes at 5° C.) within 30 minutes of collection. Plasma samples were placed in Micronic 96 well tubes and stored at −80° C. until transferred. Plasma concentration of the test compounds was determined by LC-MS/MS. Pharmacokinetic parameters were estimated using non-compartment model analysis. The maximum observed concentration (Cmax) and area under the curve from time of dosing to last measured concentration (AUClast) were calculated and reported.

Another series has as its target GDP-loaded KRAS G12D (Homo sapiens, UniProt P01116, G12D). Description: KRAS G12D (GDP) biochemical assay, TR-FRET probe displacement. The series is classed as binding. On the procedure: Example A. KRAS G12D (GDP) Biochemical Assay
Compounds were tested for binding to GDP-loaded KRAS G12D in a 384-well assay format using a TR-FRET probe displacement assay in buffer consisting of 50 mM Hepes (pH 7.4), 150 mM NaCl, 5 mM MgCl2 and 0.005% Tween-20. […] Compounds were serially diluted (1:3) in DMSO. The LabCyte ECHO Acoustic dispenser system was used to pre-spot the assay plates (384-well Non-Binding Surface plates, Corning, Catalog #3824) with 50 nL of compound. The compounds were pre-incubated with 5 μL of 2× final enzyme concentration for 30 minutes before adding 5 μL of 2× final concentration of Eu-streptavidin and TR-FRET probe (10 μL final reaction volume). The plates were incubated at room temperature for 2 hours before measuring TR-FRET ratio on the Envision plate reader. IC50 values were defined as the compound concentration that causes a 50% decrease in TR-FRET ratio and were calculated using a sigmoidal dose-response model to generate curve fits.
On the technique in general: Time-resolved FRET reads energy transfer from a long-lived donor to a nearby acceptor.

[2] abbreviates: male, CD-1, mouse, in vivo, po, 30 mg/kg.
The mark [3] stands for this setting: 96 h, GP2D cells, 4 days, CellTiter-Glo luminescence, read-out: G12D 2D EC50.
[4] abbreviates: 0.5 nM enzyme, 30 min pre-incubation, 2 h incubation, TR-FRET ratio, read-out: G12D IC50.

Sequence of GDP-loaded KRAS G12D (P01116 1-188 isoform P01116-2 G12D): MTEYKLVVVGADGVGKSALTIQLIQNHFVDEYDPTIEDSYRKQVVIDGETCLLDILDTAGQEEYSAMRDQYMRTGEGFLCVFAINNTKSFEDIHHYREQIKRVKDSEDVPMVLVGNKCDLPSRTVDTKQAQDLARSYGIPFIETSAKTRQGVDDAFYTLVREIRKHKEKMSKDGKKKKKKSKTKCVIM

The term EC50 denotes the concentration giving half of the maximal effect. In the case of “5-ethynyl-6-fluoro-4-((7R,8S,8aS,9S,12R)-4-fluoro-2-(((2R,7aS)-2-fluorotetrahydro-1H-pyrrolizin-7a(5H)-yl)methoxy)-7,8-dimethyl-14-((5-methyl-2-oxo-1,3-dioxol-4-yl)methyl)-7,8,8a,9,10,11,12,13-octahydro-1,3,6,13a,14-pentaaza-9,12-methanonaphtho[1,8-ab]heptalen-5-yl)naphthalen-2-yl isobutyrate [Example 31]”, the EC50 in the series with GP2D (KRAS G12D) cells (GP2D cells, 4 days, CellTiter-Glo luminescence, read-out: G12D 2D EC50) is 0.2 nM. The “Mouse Parent AUC” value in series [1] (oral gavage, 30 mg-eq./kg each compound, cassette, plasma, AUClast of parent) amounted to 0.99 µM·h.
On to `C#Cc1c(F)ccc2cc(O)cc(-c3nc4c5c(nc(OC[C@@]67CCCN6C[C@H](F)C7)nc5c3F)N3C[C@H]5CC[C@H](N5)[C@@H]3[C@@H](C)C4)c12` [Comp. Ex. 64, 5-ethynyl-6-fluoro-4-((5S,5aS,6S,9R)-1-fluoro-12-(((2R,7aS)-2-fluorotetrahydro-1H-pyrrolizin-7a(5H)-yl)methoxy)-5-methyl-4,5,5a,6,7,8,9,10-octahydro-3,10a,11,13,14-pentaaza-6,9-methanonaphtho[1,8-ab]heptalen-2-yl)naphthalen-2-ol, reference compound], for which the “Mouse Parent AUC” value in series [1] (setting [2]) was found to be 0.83 µM·h.
On to `C#Cc1c(F)ccc2cc(O)cc(-c3nc4c5c(nc(OC[C@@]67CCCN6C[C@H](F)C7)nc5c3F)N3C[C@H]5CC[C@H](N5)[C@@H]3[C@@H](C)[C@H]4C)c12` [Comp. Ex. 87, reference compound], for which, in series [1] (setting [2]), the “Mouse Parent AUC” value turned out to be 0.9 µM·h.
For orientation: IC50 means the concentration that gives 50% inhibition. Consider `C#Cc1c(F)ccc2cccc(-c3nc4c5c(nc(OC[C@@]67CCCN6C[C@H](F)C7)nc5c3F)N3C[C@H]5CC[C@@H]([C@H]3CCC4)N5Cc3oc(=O)oc3C(C)(C)C)c12` [Example 6, 4-(tert-butyl)-5-(((6aR,7S,10R)-2-(8-ethynyl-7-fluoronaphthalen-1-yl)-1-fluoro-13-(((2R,7aS)-2-fluorotetrahydro-1H-pyrrolizin-7a(5H)-yl)methoxy)-5,6,6a,7,8,9,10,11-octahydro-4H-3,11a,12,14,15-pentaaza-7,10-methanocyclohepta[4,5]cycloocta[1,2,3-de]naphthalen-15-yl)methyl)-1,3-dioxol-2-one], for which the EC50 in the series on GP2D (KRAS G12D) cells (setting [3]) was 26 nM. Moreover, on GDP-loaded KRAS G12D (setting [4]), the IC50 is 31 nM.
As for `C#Cc1c(F)ccc2cc(O)cc(-c3nc4c5c(nc(OC[C@@]67CCCN6C[C@H](F)C7)nc5c3F)N3C[C@H]5CC[C@@H]([C@@H]3[C@@H](C)C4)N5Cc3oc(=O)oc3C)c12` [Example 7, 4-(((5S,5aS,6S,9R)-2-(8-ethynyl-7-fluoro-3-hydroxynaphthalen-1-yl)-1-fluoro-12-(((2R,7aS)-2-fluorotetrahydro-1H-pyrrolizin-7a(5H)-yl)methoxy)-5-methyl-4,5,5a,6,7,8,9,10-octahydro-3,10a,11,13,14-pentaaza-6,9-methanonaphtho[1,8-ab]heptalen-14-yl)methyl)-5-methyl-1,3-dioxol-2-one], the concentration giving a half-maximal response (EC50) with GP2D (KRAS G12D) cells (setting [3]) was determined as 0.18 nM. In addition, at GDP-loaded KRAS G12D (setting [4]), the IC50 came to 2.8 nM.
In the case of `Oc1cc(-c2nc3c4c(nc(OC[C@@]56CCCN5C[C@H](F)C6)nc4c2F)N2C[C@H]4CC[C@H](N4)[C@H]2CCC3)c2c(OC(F)(F)F)c(F)ccc2c1` [Example 18-P, 6-fluoro-4-((6aR,7S,10R)-1-fluoro-13-(((2R,7aS)-2-fluorotetrahydro-1H-pyrrolizin-7a(5H)-yl)methoxy)-5,6,6a,7,8,9,10,11-octahydro-4H-3,11a,12,14,15-pentaaza-7,10-methanocyclohepta[4,5]cycloocta[1,2,3-de]naphthalen-2-yl)-5-(trifluoromethoxy)naphthalen-2-ol], the EC50 in the series on GP2D (KRAS G12D) cells (setting [3]) came out at 0.24 nM. The IC50 at GDP-loaded KRAS G12D (setting [4]) amounted to 0.06 nM.
On the same counts, the results for `C#Cc1c(F)ccc2cc(O)cc(-c3c(F)c4c5c(nc(OC[C@@]67CCCN6C[C@H](F)C7)nc5c3F)N3C[C@H]5CC[C@H](N5)[C@H]3CC4)c12` [Example 37-P, 4-((1S,4R,11R,14aR)-10,12-difluoro-8-(((2R,7aS)-2-fluorotetrahydro-1H-pyrrolizin-7a(5H)-yl)methoxy)-1,2,3,4,5,13,14,14a-octahydro-1,4-epiminoazepino[1′,2′:1,7]azepino[2,3,4-de]quinazolin-11-yl)-5-ethynyl-6-fluoronaphthalen-2-ol] are 0.26 nM and 0.07 nM.
As for `C#Cc1c(F)ccc2cc(O)cc(-c3nc4c5c(nc(OC[C@@]67CCCN6C[C@H](F)C7)nc5c3F)N3C[C@H]5CC[C@H](N5)[C@@H]3[C@H]3CCC[C@@H]43)c12` [Example 42-P, 5-ethynyl-6-fluoro-4-((3aS,3bS,4S,7R,14bR)-12-fluoro-10-(((2R,7aS)-2-fluorotetrahydro-1H-pyrrolizin-7a(5H)-yl)methoxy)-2,3,3a,3b,4,5,6,7,8,14b-decahydro-1H-8a,9,11,14,15-pentaaza-4,7-methanocyclopenta[d]naphtho[1,8-ab]heptalen-13-yl)naphthalen-2-ol], the EC50 in the series on GP2D (KRAS G12D) cells (setting [3]) was determined as 1.7 nM. In addition, the IC50 at GDP-loaded KRAS G12D (setting [4]) is 0.15 nM.
With `C#Cc1c(F)ccc2cc(OC(=O)N(C)C)cc(-c3nc4c5c(nc(OC[C@@]67CCCN6C[C@H](F)C7)nc5c3F)N3C[C@H]5CC[C@@H]([C@@H]3[C@@H](C)C4)N5Cc3oc(=O)oc3C)c12` [Example 51, 5-ethynyl-6-fluoro-4-((5S,5aS,6S,9R)-1-fluoro-12-(((2R,7aS)-2-fluorotetrahydro-1H-pyrrolizin-7a(5H)-yl)methoxy)-5-methyl-14-((5-methyl-2-oxo-1,3-dioxol-4-yl)methyl)-4,5,5a,6,7,8,9,10-octahydro-3,10a,11,13,14-pentaaza-6,9-methanonaphtho[1,8-ab]heptalen-2-yl)naphthalen-2-yl dimethylcarbamate], the EC50 in the series on GP2D (KRAS G12D) cells (GP2d, 96 h, read-out: G12D 2D EC50 (nM)) worked out at 34 nM. Also, on GDP-loaded KRAS G12D, the half-inhibitory concentration (IC50) is above 100 nM.
For the compound `C#Cc1c(F)ccc2cc(O)cc(-c3nc4c5c(nc(OC[C@]6(C)CN(C)CC[C@@H]6C(F)F)nc5c3F)N3C[C@H]5CC[C@H](N5)[C@H]3CCC4)c12` [Example 74-P, 4-((6aR,7S,10R)-13-(((3S,4S)-4-(difluoromethyl)-1,3-dimethylpiperidin-3-yl)methoxy)-1-fluoro-5,6,6a,7,8,9,10,11-octahydro-4H-3,11a,12,14,15-pentaaza-7,10-methanocyclohepta[4,5]cycloocta[1,2,3-de]naphthalen-2-yl)-5-ethynyl-6-fluoronaphthalen-2-ol], the EC50 with GP2D (KRAS G12D) cells (setting [3]) worked out at 0.15 nM. On GDP-loaded KRAS G12D (setting [4]), the IC50 turned out to be 0.03 nM.
`[2H]C([2H])([2H])N1CC[C@H](C(F)F)[C@](C)(C([2H])([2H])Oc2nc3c4c(nc(-c5cc(O)cc6ccc(F)c(C#C)c56)c(F)c4n2)CCC[C@@H]2[C@@H]4CC[C@H](CN32)N4)C1` [Example 75-P, 4-((6aR,7S,10R)-13-(((3S,4S)-4-(difluoromethyl)-3-methyl-1-(methyl-d3)piperidin-3-yl)methoxy-d2)-1-fluoro-5,6,6a,7,8,9,10,11-octahydro-4H-3,11a,12,14,15-pentaaza-7,10-methanocyclohepta[4,5]cycloocta[1,2,3-de]naphthalen-2-yl)-5-ethynyl-6-fluoronaphthalen-2-ol]: the EC50 in the series on GP2D (KRAS G12D) cells (setting [3]) stood at 0.1 nM. For the same compound, at GDP-loaded KRAS G12D (setting [4]), the half-inhibitory concentration (IC50) was 0.03 nM.
The corresponding values for `C#Cc1c(F)ccc2cc(N)cc(-c3nc4c5c(nc(OC[C@]6(C)CN(C)CC[C@@H]6C(F)F)nc5c3F)N3C[C@H]5CC[C@H](N5)[C@H]3CCC4)c12` [Example 76-P, 4-((6aR,7S,10R)-13-(((3S,4S)-4-(difluoromethyl)-1,3-dimethylpiperidin-3-yl)methoxy)-1-fluoro-5,6,6a,7,8,9,10,11-octahydro-4H-3,11a,12,14,15-pentaaza-7,10-methanocyclohepta[4,5]cycloocta[1,2,3-de]naphthalen-2-yl)-5-ethynyl-6-fluoronaphthalen-2-amine] are 0.27 nM and 0.07 nM.
